One molecule from patent publication US20230159931A1, “TARGETING THE PALMOTYLATION/DEPALMOTYLATION CYCLE TO TREAT INFLAMMATORY DISEASES” (CORNELL UNIVERSITY, priority 2020, published 2023) can be followed below.

One assay addresses T1, APT2 (Homo sapiens, UniProt O95372).
T1 construct: treated with LYPLA2 siRNA or 20 μM of ML349 for 36 h before Alk14 labelling; endogenous in cells; host or cells: DHHC7-knockout HEK293T cells re-expressing HA-DHHC7 and Flag-STAT3
Description: STAT3 palmitoylation by Alk14 labelling and in-gel fluorescence after APT2 inhibition or knockdown. In kind it is cell-based. The following applies: DHHC7-knockout HEK293T cells reintroduced with HA-DHHC7 and Flag-STAT3; LYPLA2 siRNA or 20 μM of ML349 for 36 h. The text has this:
FIGS. 2A-2H. APT2 is a depalmitoylase of STAT3 and palmitoylation/depalmitoylation promotes p-STAT3 nuclear localization. (A) C108 is the major palmitoylation site of STAT3. HEK293T cells were transfected with HA-DHHC7 and Flag-STAT3 (wild-type or mutants) and labelled with Alk14. STAT3 was pulled down and subjected to Alk14 labelling and western blot analyses. (B) Left, distribution of wild-type or C108S mutants of STAT3 and p-STAT3 in the subcellular fractions of DHHC7-knockout HEK293T cells into which DHHC7 or DHHS7 were reintroduced. Right, quantification of the relative p-STAT3 levels. (C) The subcellular localization of STAT3 and p-STAT3 was analysed using confocal imaging after different EGFP-STAT3 constructs and HA-tagged DHHC7 were transfected into DHHC7-knockout HEK293T cells. […] (D) In HEK293T cells, overexpression of wild-type APT2—but not the C2S or S122A mutants—decreased the palmitoylation level of Flag-STAT3 as determined by Alk14 labelling. […] The palmitoylation of STAT3 was determined by in-gel fluorescence (left) and quantified (right). […] DHHC7-knockout HEK293T cells were reintroduced with HA-DHHC7 and Flag-STAT3, and treated with LYPLA2 siRNA or 20 μM of ML349 for 36 h before Alk14 labelling and in-gel fluorescence detection. […] Right, quantification of the relative STAT3 and p-STAT3 levels in these fractions. […] Right, quantification of the relative STAT3 levels in these fractions. […]

For another assay, the system named is SMAD2 S-palmitoylation. Put plainly: SMAD2 S-palmitoylation in HEK293T cells treated with APT inhibitors (Alk14, in-gel fluorescence). Type of assay: cell-based, human. The following applies: 10 μM APT inhibitors for 24 hours; HEK293T cells with HA-DHHC7 and Flag-SMAD2. From the text:
FIGS. 7A-7G. APT2 is the depalmitylase of SMAD2 and C-terminal phosphorylation of SMAD2 is S-palmitoylation independent. (A) C-terminal phosphorylation (Ser465/Ser467) levels of Flag-SMAD2 (p-SMAD2(C2)) in HEK293T cells expressing HA-tagged mouse DHHC1-23. SMAD2 was pulled down with Flag beads and subjected to western blot analyses. (B) HEK293T cells were transfected with HA-tagged DHHC7 and Flag-SMAD2 WT and C41/81S mutant plasmid and treated with Alk14. The S-palmitoylation level of immunoprecipitated SMAD2 was visualized by in-gel fluorescence and the p-SMAD2(C2) level was detected by western blot analyses. […] The S-palmitoylation level of immunoprecipitated SMAD2 was visualized by in-gel fluorescence. […] The cells were labeled with Alk14 and the S-palmitoylation of SMAD2 was determined by in-gel fluorescence. […] The cells were labeled with Alk14 and the S-palmitoylation of SMAD2 was determined by in-gel fluorescence and the p-SMAD2(C2) level was detected by western blot analyses. […]
Cells were treated with 50 μM palmitic acid analogue Alkyne 14 (Alk14) for 5 h and the collected and lysed in 1% NP-40 lysis buffer (25 mM Tris-HCl pH 8.0, 150 mM NaCl, 10% glycerol, 1% Nonidet P-40) with protease inhibitor cocktail. […] The protein concentration was determined by Bradford assay (23200, Thermo Fisher). […]

Each structure is given as a SMILES string.

T1 sequence (O95372 whole entry): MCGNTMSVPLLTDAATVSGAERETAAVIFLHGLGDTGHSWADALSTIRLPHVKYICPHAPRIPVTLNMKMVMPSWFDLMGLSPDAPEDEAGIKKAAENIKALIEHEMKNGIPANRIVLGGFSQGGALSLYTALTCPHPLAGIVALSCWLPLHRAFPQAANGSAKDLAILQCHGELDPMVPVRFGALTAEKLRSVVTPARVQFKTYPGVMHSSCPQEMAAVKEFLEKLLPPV

For the molecule `COc1ccc(N2CCN(C(=O)c3cc4c(s3)-c3ccccc3S(=O)(=O)C4)CC2)cc1` [ML349], the STAT3 palmitoylation result on APT2 was “increased STAT3 palmitoylation”. Besides, in the assay with SMAD2 S-palmitoylation, the “SMAD2 S-palmitoylation signal” value is “significantly enhanced”.
